Measured values published in ChEMBL document CHEMBL1134342, “Current and novel approaches to the drug treatment of schizophrenia” (J Med Chem, 2001).
Active and inactive are the calls of the source. No cut-off for these calls is given here.

Legend:
Rattus norvegicus [1] = test: Block of mescaline induced head twitch in rat at 1 hour after peroral administration of compound; assay type: functional; details: po
D(4) dopamine receptor = target: T1, D(4) dopamine receptor (Homo sapiens, UniProt P21917)
T1 sequence (P21917 whole entry): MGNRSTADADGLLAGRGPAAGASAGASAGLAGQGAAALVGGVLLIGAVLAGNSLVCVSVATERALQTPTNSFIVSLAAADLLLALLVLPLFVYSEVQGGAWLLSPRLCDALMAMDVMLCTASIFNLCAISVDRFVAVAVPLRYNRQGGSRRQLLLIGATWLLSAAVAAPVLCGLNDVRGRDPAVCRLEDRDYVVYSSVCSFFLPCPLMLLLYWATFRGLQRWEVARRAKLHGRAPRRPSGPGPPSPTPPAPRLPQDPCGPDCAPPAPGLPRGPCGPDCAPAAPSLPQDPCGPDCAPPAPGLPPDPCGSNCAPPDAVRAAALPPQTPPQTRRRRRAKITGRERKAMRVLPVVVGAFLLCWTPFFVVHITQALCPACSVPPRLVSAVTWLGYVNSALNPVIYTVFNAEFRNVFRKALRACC

Rattus norvegicus [2] = test: Block of mescaline induced head twitch in rat at 6 hour after peroral administration of compound; assay type: functional; details: po
Rodentia sp. [3] = test: Induction of catalepsy was determined after a (sc) administration; assay type: functional
Rodentia sp. [4] = test: Motor impairment by impaired rotarod performance after a (sc) administration; assay type: functional
Rodentia sp. [5] = test: Antipsychotic potential by blockade of apomorphine or amphetamine hyperactivity after a (sc) administration; assay type: functional
Rodentia sp. [6] = test: Extrapyramidal liability by induction of catalepsy after a (sc) administration 80 umol/kg; not effective; assay type: functional, organism-based
Rodentia sp. [7] = test: Motor impairment by impaired spontaneous locomotor activity after a (sc) administration; assay type: functional
Rodentia sp. [8] = test: Antipsychotic potential by inhibition of conditioned avoidance responding after a (sc) administration 40 umol/kg; not effective; assay type: functional, organism-based
[9] = target: 5-hydroxytryptamine receptor 2A (Homo sapiens, UniProt P28223)
Description: Binding affinity for human 5-hydroxytryptamine 2A receptor

[10] = Plasma half life period was determined in human; assay type: ADME, organism-based
[11] = Binding affinity at sodium channels
Rodentia sp. [12] = tested on: Rodentia sp.
Rodentia sp. [13] = tested on: Rodentia sp.; remark: listed apart in the source
Rodentia sp. [14] = test: Antipsychotic potential by blockade of apomorphine disruption in PPI after (sc) administration; assay type: functional; details: read-out: MED
Rodentia sp. [15] = tested on: Rodentia sp.; remark: listed apart in the source
Rodentia sp. [16] = tested on: Rodentia sp.; remark: listed apart in the source
Rodentia sp. [17] = tested on: Rodentia sp.; remark: listed apart in the source
[18] = Cmax was determined in rat after oral administration of 3 mg/kg; assay type: ADME, organism-based; parameters: dose 3 mg/kg, route oral; details: in vivo
Rodentia sp. [19] = test: Motor impairment by impaired spontaneous locomotor activity after oral administration of […] umol/kg; not effective; assay type: functional, organism-based
Rodentia sp. [20] = test: Antipsychotic potential by blockade of apomorphine or amphetamine hyperactivity after oral administration; assay type: functional
Rodentia sp. [21] = test: Extrapyramidal liability by induction of catalepsy after oral administration of […] umol/kg; not effective; assay type: functional, organism-based
Rodentia sp. [22] = test: EPS liability measured by blockade of stereotypy after oral administration of […] umol/kg; not effective; assay type: functional, organism-based
[23] = Bioavailability in rat; assay type: ADME, organism-based; details: in vivo
[24] = Half life period was determined in rat; assay type: ADME, organism-based; details: in vivo
[25] = Percent inhibition of binding affinity for sodium channel at 10 uM
[26] = target: Voltage-gated L-type calcium channel (Homo sapiens, UniProt O60840+Q01668+Q13698+Q13936); test: Percent inhibition of binding to calcium channel at 10 uM; assay type: protein assay
[27] = target: T2, Adrenergic receptor alpha-1 (Homo sapiens, UniProt P35348+P25100+P35368)
T2 sequence (P35348 whole entry): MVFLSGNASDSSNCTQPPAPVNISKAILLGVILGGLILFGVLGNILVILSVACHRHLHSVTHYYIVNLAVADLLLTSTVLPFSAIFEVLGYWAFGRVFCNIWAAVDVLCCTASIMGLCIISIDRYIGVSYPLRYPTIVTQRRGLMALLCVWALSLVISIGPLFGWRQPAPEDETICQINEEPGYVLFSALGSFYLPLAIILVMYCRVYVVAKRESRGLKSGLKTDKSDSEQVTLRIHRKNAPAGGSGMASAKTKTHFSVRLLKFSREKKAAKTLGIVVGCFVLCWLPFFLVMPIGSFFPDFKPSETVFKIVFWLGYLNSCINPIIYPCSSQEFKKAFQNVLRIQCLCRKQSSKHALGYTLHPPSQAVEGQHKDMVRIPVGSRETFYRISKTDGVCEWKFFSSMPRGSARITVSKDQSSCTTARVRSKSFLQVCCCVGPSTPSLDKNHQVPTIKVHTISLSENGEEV
T2 sequence (P25100 whole entry): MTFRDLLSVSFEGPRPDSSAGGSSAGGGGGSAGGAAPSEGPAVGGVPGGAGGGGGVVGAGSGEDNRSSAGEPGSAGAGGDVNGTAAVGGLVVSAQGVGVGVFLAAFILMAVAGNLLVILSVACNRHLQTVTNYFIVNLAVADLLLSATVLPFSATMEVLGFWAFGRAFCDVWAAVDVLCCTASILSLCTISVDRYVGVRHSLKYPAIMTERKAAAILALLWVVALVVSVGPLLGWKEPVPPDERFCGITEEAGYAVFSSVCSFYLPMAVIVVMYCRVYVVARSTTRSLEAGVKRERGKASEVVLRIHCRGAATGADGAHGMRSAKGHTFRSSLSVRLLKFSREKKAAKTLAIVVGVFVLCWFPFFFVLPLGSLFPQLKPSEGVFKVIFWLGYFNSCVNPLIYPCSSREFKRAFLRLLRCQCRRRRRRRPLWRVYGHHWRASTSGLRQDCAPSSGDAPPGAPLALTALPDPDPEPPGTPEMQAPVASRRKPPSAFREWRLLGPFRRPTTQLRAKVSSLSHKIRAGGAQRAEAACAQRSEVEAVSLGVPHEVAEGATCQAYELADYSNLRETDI
T2 sequence (P35368 whole entry): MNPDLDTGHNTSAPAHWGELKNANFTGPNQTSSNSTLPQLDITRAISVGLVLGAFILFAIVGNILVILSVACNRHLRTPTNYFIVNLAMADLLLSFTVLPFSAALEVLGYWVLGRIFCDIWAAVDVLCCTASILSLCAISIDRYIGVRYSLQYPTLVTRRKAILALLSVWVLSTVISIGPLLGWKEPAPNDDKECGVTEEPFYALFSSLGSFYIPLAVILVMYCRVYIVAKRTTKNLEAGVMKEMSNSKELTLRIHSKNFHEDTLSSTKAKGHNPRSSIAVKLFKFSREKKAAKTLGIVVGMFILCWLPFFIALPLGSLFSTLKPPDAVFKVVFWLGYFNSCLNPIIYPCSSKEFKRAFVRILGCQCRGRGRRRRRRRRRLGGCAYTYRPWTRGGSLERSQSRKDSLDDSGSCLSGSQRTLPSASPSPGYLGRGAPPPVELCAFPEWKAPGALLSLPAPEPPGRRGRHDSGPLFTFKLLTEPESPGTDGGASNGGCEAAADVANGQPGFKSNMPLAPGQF
Description: Binding affinity towards human alpha-1 adrenergic receptor

[28] = target: T3, Muscarinic acetylcholine receptor M1 (Homo sapiens, UniProt P11229)
T3 sequence (P11229 whole entry): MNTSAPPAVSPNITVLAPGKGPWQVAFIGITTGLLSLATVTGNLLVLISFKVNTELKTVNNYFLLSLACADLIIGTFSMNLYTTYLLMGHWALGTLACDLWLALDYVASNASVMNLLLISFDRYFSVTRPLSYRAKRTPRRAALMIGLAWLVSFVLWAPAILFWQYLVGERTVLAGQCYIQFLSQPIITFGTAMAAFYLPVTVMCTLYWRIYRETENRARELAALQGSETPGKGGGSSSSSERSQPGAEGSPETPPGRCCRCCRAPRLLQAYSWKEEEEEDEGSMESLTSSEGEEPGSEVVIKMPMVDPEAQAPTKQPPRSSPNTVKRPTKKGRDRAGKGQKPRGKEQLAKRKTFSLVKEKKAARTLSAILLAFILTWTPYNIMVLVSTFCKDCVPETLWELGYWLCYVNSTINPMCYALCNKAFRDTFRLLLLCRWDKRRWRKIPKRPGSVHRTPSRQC
Description: Binding affinity towards human M1 receptor.

[29] = target: T4, 5-hydroxytryptamine receptor 1A (Homo sapiens, UniProt P08908); test: Binding affinity towards human 5-hydroxytryptamine 1 receptor
T4 sequence (P08908 whole entry): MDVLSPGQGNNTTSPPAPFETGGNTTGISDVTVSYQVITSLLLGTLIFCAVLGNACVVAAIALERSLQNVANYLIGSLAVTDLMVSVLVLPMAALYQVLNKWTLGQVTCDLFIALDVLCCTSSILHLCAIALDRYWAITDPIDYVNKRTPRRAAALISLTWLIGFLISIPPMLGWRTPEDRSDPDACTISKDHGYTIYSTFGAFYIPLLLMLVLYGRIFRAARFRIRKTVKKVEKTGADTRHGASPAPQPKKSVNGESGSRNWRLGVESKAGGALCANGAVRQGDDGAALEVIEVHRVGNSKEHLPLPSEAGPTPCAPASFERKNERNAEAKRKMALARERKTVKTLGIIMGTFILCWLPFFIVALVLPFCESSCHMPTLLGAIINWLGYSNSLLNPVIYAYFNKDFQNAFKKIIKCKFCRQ

Mus musculus [30] = test: Antagonizing amphetamine induced hyperlocomotion in mice was determined after (ip) administration; assay type: functional
[31] = Oral bioavailability was determined in rats and rhesus monkey; assay type: ADME, organism-based; details: eutheria, in vivo
Mus musculus [32] = test: Antagonizing amphetamine induced hyperlocomotion in mice was determined after […] administration; assay type: functional
[33] = Brain/Plasma AUC ratio was determined after oral administration of 50 mg/kg; assay type: ADME, organism-based; parameters: dose 50 mg/kg, route oral; details: brain and plasma

Sequence of 5-hydroxytryptamine receptor 2A (P28223 whole entry): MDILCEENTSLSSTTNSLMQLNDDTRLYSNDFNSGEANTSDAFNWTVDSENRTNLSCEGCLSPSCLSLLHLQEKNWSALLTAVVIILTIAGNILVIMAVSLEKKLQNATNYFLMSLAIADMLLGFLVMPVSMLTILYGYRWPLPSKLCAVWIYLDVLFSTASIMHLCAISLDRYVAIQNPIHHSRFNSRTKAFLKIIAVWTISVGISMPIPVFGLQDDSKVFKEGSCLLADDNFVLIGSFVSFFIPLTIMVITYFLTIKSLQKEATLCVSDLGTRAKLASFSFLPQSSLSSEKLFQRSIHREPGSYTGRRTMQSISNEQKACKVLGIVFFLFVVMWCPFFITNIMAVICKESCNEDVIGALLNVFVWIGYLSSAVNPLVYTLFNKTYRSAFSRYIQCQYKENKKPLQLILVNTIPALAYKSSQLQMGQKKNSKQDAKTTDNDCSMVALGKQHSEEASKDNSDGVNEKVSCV

With `O=S1(=O)c2cccc3cccc(c23)N1CCCN1CCN(c2ccc(F)cc2)CC1` [FANANSERIN] the ED50 (Rattus norvegicus [1]) was 0.99 mg/kg, the Ki (D(4) dopamine receptor) was 2.9 nM and the ED50 (Rattus norvegicus [2]) was 2.4 mg/kg.

For `c1ccc2c(c1)CC(CN1CCN(c3ccc4c(c3)OCCO4)CC1)C2`, the ED50 (Rodentia sp. [3]) was 80 mg/kg, the ED50 (Rodentia sp. [4]) was 66 mg/kg and the ED50 (Rodentia sp. [5]) was 9 mg/kg. The NE (Rodentia sp. [6]) was “inactive”, the ED50 (Rodentia sp. [7]) was 40 mg/kg and the NE (Rodentia sp. [8]) was “inactive”.

With `OC(c1ccc(F)cc1)C1CCN(CCCCc2ccccc2)CC1` (configuration not stated) the Ki [9] was 126 nM.

Molecule `O=C(c1ccc(F)cc1)C1CCN(CCCCc2ccccc2)CC1` has a Ki [9] of 5.3 nM.

`COc1cccc([C@H](O)C2CCN(CCc3ccc(F)cc3)CC2)c1OC` [VOLINANSERIN] gave a half-life [10] of 6.6 h.

Molecule `O=C(c1ccccc1)C1CCN(CCc2ccccc2)CC1` has a Ki [9] of 9.6 nM.

For `c1ccc(N2CCN(Cc3c[nH]c4ccccc34)CC2)cc1`, the IC50 [11] was greater than 10000 nM.

In the case of `NS(=O)(=O)c1ccc(N2CCN(CC[C@@H]3OCCc4ccccc43)CC2)cc1` [SONEPIPRAZOLE], the NE (Rodentia sp. [12]) is reported as “inactive”, the NE (Rodentia sp. [13]) is reported as “inactive” and the Ki (D(4) dopamine receptor) is reported as 6.8 nM. For the same molecule, the minimal effective dose (Rodentia sp. [14]) was 30 mg/kg, the NE (Rodentia sp. [15]) was “inactive” and the NE (Rodentia sp. [16]) was “inactive”. For the same molecule, the NE (Rodentia sp. [17]) was “inactive”.

For `c1ccc(N2CCN(Cc3c[nH]c4ncccc34)CC2)cc1`, the Ki (D(4) dopamine receptor) was 1.9 nM and the Cmax [18] was 18 ng/mL.

In the case of `O=C(c1ccc(F)cc1)C1CCN(CCn2c(=O)[nH]c3ccccc3c2=O)CC1` [KETANSERIN], the Ki (D(4) dopamine receptor) is reported as 3.5 nM.

For `Fc1ccc(OC[C@@H]2CC[C@H]3CN(c4ncc(F)cn4)CCN3C2)cc1`, the NE (Rodentia sp. [19]) was “inactive”, the minimal effective dose (Rodentia sp. [14]) was 18 mg/kg and the ED50 (Rodentia sp. [20]) was 13 mg/kg. For the same molecule, the NE (Rodentia sp. [21]) was “inactive” and the NE (Rodentia sp. [22]) was “inactive”.

Work on `Cc1c(-c2ccccc2)[nH]c(=O)n1C1CCN(Cc2cccc(C#N)c2)CC1` yielded a bioavailability [23] of 69% and a half-life [24] of 1.1 h.

In the case of `OC(c1ccccc1)C1CCN(CCc2ccccc2)CC1` (configuration not stated) [GLEMANSERIN], the Ki [9] is reported as 2.5 nM.

`O=c1ccc2ccc(NCCNc3ccccc3)cc2o1` gave a Ki (D(4) dopamine receptor) of 5.8 nM.

For `Cc1c(C2CCN(CCc3ccccc3)CC2)noc1-c1ccc(Cl)cc1`, the bioavailability [23] was 38% and the half-life [24] was 2 h.

Molecule `Clc1ccccc1CCN1CCN(c2[nH]nc3c2CCc2ccccc2-3)CC1` has a bioavailability [23] of 31%, a half-life [24] of 1 h and an inhibition [25] of 33%. For the same molecule, the inhibition at 10 µM [26] was 58% and the Ki (D(4) dopamine receptor) was 4.3 nM.

With `O=C1Cc2cc(CCN3CCN(c4nsc5ccccc45)CC3)c(Cl)cc2N1` [ZIPRASIDONE] the Ki [27] was 1.9 nM, the Ki [28] was greater than 10000 nM and the Ki [29] was 37 nM.

`COc1cccc([C@H](O)C2CCN(CCc3ccc(F)cc3)CC2)c1O` showed an ED50 (Mus musculus [30]) of 0.08 mg/kg, a bioavailability [31] of less than 3% and an ED50 (Mus musculus [32]) of 0.62 mg/kg. For the same molecule, the Kp [33] was less than 0.13.
